Reference: US20160138077A1, “MONITORING AND ASSESSING DEACETYLASE ENZYME ACTIVITY” (THE GENERAL HOSPITAL CORPORATION, priority 2013, published 2016)

Tests used:
[1] = target: T1, HDAC3 (Homo sapiens, UniProt O15379); test: Caliper microfluidic endpoint IC50 assay; assay type: biochemical
T1 construct: purchased Cayman Chemicals
Method: (§1) HP-1 and HP-2 IC50 values for HDAC1 were determined using the Trypsin-coupled assay as well as the Caliper endpoint assay. HP-1 and HP-2 IC50 values for HDAC2, HDAC3, HDAC6 and HDAC8 were determined with the Caliper endpoint assay.
The Caliper microfluidic assay was performed at the Broad Institute exactly as previously described.^5
(§2) IC50 measurements. HP-1 and HP-2 IC50 values for HDAC1 were determined using the Trypsin-coupled assay as well as the Caliper endpoint assay. HP-1 and HP-2 IC50 values for HDAC2, HDAC3, HDAC6 and HDAC8 were determined with the Caliper endpoint assay (full experimental details in Example 1).

[2] = target: T2, HDAC1 (Homo sapiens, UniProt Q13547); test: HDAC1 IC50 (Trypsin-coupled assay and Caliper endpoint assay); assay type: biochemical; conditions: competitive inhibition with a peptide substrate
T2 construct: purchased Cayman Chemicals
T2 sequence (Q13547 whole entry): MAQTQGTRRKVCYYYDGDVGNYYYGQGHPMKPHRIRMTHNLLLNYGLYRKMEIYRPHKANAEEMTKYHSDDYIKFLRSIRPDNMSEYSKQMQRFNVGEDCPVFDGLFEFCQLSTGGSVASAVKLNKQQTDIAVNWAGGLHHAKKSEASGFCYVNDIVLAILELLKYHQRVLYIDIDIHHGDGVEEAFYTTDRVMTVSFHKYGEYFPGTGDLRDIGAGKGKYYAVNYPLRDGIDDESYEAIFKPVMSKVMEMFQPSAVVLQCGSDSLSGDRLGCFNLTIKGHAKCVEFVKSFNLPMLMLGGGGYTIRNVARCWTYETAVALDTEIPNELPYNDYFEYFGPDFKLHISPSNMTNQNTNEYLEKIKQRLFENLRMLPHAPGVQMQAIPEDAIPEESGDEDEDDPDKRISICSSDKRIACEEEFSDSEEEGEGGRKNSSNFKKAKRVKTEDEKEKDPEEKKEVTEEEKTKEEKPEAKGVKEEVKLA
Method: as §1
In vitro HDAC 1 end point enzymatic assays were performed in optimized 96-well format as previously described^3,4 with the following modifications. Reactions were performed in volume of 120 uL with 30 ng of full-length, recombinant HDAC1 (BPS Biosciences). TCEP was excluded from the assay buffer. HDAC1 was pre-incubated with varying concentrations of HP-1 or HP-2, or DMSO vehicle for 30 minutes. Fluorophore-conjugated acetyl-lysine tripeptide substrate was added at a concentration equivalent to the substrate Km, 11 uM, and the deacetylation reaction was allowed to run for 45 minutes at RT. […] Fluorescence intensity of the aminomethylcoumarin liberated by deacetylase and trypsin enzymatic activity was monitored at 460 nm using a multilabel plate reader (EnVision, Perkin-Elmer) every 5 minutes until stable, about 25 minutes. […]
as §2

[3] = test system: HeLa cells; test: Confocal fluorescence imaging of HDAC activity in HeLa cells; assay type: cell-based; conditions: 5 μM probe, 2 hours
Method: Imaging HDAC activity in HeLa cells with HP-1 and 2. An acid-washed, poly-lysine-treated sterile glass cover slip was added to each well of 6-well plate, and HeLa cells were plated at a seeding density of ˜2.5×10^5 cells/mL in 2 mL of growth medium. After 24 hours, the cells reached 80-85% confluence. For all experiments, solutions of HP-1 and HP-2 (200 mM each) were prepared in DMSO and diluted in HDAC buffer to a final concentration of 100 μM. SAHA solutions (100 mM) were prepared in DMSO and diluted in HDAC buffer to make a 100 μM solution. All solutions were prepared immediately prior to application to the cells. […]
Confocal fluorescence image acquisition and analysis. Confocal fluorescence imaging was performed with a Zeiss laser scanning microscope 710 with a 63× objective lens and Zen 2009 software (Carl Zeiss). […] The mean fluorescence intensity of 10 cells per coverslip was measured using ImageJ software. […] The mean background signal was also measured and subtracted from the mean fluorescence signal within the cells. Mean fluorescence intensities and standard deviations were plotted in Microsoft Excel.
Imaging HDAC activity in HeLa cells with HP-1 and 2. […] Cover slips were mounted on a drop of Gel Mount (anti-fade with DAPI nuclear stain) and analyzed by confocal imaging.
Confocal fluorescence imaging. […]

T1 sequence (O15379 whole entry): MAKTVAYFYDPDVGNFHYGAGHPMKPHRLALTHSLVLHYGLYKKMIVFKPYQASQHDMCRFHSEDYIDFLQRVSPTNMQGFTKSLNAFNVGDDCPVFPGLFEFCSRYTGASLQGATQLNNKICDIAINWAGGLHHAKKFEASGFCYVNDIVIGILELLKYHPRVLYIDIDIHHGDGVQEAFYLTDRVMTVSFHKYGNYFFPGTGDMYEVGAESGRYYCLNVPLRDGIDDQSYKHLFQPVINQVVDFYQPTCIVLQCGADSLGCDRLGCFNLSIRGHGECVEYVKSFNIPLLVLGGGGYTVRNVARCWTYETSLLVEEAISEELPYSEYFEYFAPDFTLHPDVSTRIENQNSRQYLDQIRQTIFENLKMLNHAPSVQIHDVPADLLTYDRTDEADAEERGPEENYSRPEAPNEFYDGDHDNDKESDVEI
T1 sequence (Q9Y618 395-489 partner limits assumed): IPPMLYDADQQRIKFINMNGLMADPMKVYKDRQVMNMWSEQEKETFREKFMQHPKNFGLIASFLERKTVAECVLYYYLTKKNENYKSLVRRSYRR

CC(=O)NC=CCCCCNC(=O)CCCCCNc1ccc([N+](=O)[O-])c2nonc12 [HP-1]
IC50 [1]: 59 µM
IC50 ([2]; HDAC1, table does not say whether Trypsin-coupled or Caliper assay): 35.8 µM
inhibition of HDAC1 (in words) [2]: weakly inhibit
intracellular NBD fluorescence ([3]; 10 μM SAHA added 15 min prior): reduces the level of fluorescence
intracellular NBD fluorescence ([3]; absence of SAHA): robust intracellular fluorescent signal
